These results are taken from ChEMBL document CHEMBL5154723 (Bioorg Med Chem, 2022).

In general, IC50 refers to the concentration that inhibits the measured activity by half. The low end stands for higher potency, the high end for lower potency.

This assay in a line: Inhibition of Influenza A virus H5N1 neuraminidase.

The structures appear in SMILES notation.

The molecule `CCC(CC)O[C@@H]1C=C(C(=O)O)C[C@H](N)[C@H]1NC(C)=O` [OSELTAMIVIR CARBOXYLATE] came in with an IC50 of 82 nM.
`O=C(CSc1nnc(-c2ccc(F)cc2)o1)NCc1ccc(Cl)c(Cl)c1`: the concentration for half-maximal inhibition (IC50) was determined as 450 nM.
To `O=C(CSc1nnc(-c2ccc(O)cc2)o1)NCCc1cccc(F)c1` belongs 27 nM.
To `COc1cccc(CCNC(=O)CSc2nnc(-c3ccccc3)o2)c1` belongs 260 nM.
To `COc1ccc(-c2nnc(SCC(=O)NCc3ccc(Cl)c(Cl)c3)o2)cc1` belongs 3950 nM; to `O=C(CSc1nnc(-c2ccc(O)cc2)o1)NCc1ccc(Cl)c(Cl)c1`, 1180 nM.
`COc1cccc(CCNC(=O)CSc2nnc(-c3ccc(C)cc3)o2)c1`: the IC50 was determined as 150000 nM.
As for `Cc1cc([N+](=O)[O-])ccc1NC(=O)CSc1nnc(COc2ccc3ccccc3c2)o1`, the half-inhibitory concentration (IC50) turned out to be 6150 nM.
To `COc1cccc(CCNC(=O)CSc2nnc(-c3ccc(F)cc3)o2)c1` belongs 56700 nM; to `O=C(CSc1nnc(-c2ccccc2)o1)NCc1ccc(Cl)c(Cl)c1`, 130 nM.
To `O=C(CSc1nnc(-c2ccc(Cl)cc2)o1)NCc1ccc(Cl)c(Cl)c1` belongs 32 nM; to `O=C(CSc1nnc(-c2ccccc2)o1)NCCc1cccc(F)c1`, 3580 nM.
Regarding `Cc1ccc(-c2nnc(SCC(=O)NCc3ccc(Cl)c(Cl)c3)o2)cc1`, the 50% inhibitory concentration (IC50) is 2050 nM.
The molecule `COc1cccc(CCNC(=O)CSc2nnc(-c3ccc(O)cc3)o2)c1` returned an IC50 of 360 nM.
